Measured values: patent publication US20120178738A1, “DIBENZO [B,F] [1,4]OXAZAPINE COMPOUNDS” (ARYX THERAPEUTICS, INC., priority 2007, published 2012)
Read-outs that look alike come from different tables or passages of the source.

Columns and labels:
human 5HT1A receptors = biological target: T1, human 5HT1A receptors (Homo sapiens, UniProt P08908); test: h5-HT1A receptor radioligand binding ([3H]8OH-DPAT); settings: pKi reported on a scale of 1 through 5
T1 construct: expressed in transfected cells; host or cells: Chinese hamster ovary cells (membranes)
T1 sequence (P08908 1-422): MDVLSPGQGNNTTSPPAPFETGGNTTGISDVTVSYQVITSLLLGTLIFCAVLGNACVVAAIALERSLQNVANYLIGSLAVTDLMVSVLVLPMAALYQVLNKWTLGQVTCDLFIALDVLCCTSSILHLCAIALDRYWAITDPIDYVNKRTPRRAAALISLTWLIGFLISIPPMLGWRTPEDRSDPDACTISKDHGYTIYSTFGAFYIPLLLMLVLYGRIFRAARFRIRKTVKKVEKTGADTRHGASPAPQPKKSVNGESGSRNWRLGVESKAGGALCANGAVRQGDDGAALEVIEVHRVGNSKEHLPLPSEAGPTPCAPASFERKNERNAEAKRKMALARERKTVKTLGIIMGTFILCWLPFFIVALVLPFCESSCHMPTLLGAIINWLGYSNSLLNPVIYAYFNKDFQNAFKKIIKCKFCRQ
Description: (§1) Consistent with standard competition radioligand binding assays, the methodology was based on displacement of radioligand from tissues (or cell lines) bearing the receptor of interest (Cheng, Y. and Prusoff, W. H. (1973). Biochem. Pharmacol. 22, 3099-3108). The measurements were based on the binding of a single concentration of radiolabeled ligand in the presence of various concentrations of unlabeled ligand.
(§2) Tissues (or cellular plasma membrane fractions) were incubated in the presence of radioligand at equilibrium and in the presence of a range of concentrations of the test compounds (which were non-radiolabeled), and the displaced radioligand was separated from the membranes by filtration. Nonspecific binding was assessed by measuring displacement of the radioligand in the presence of a compound known to block binding of the radioligand to the receptor. Finally, the concentration-response relationship for radioligand displacement (corrected for non-specific binding) was used to assess binding of the test compound to the receptor.

human H1 receptors = biological target: T2, human H1 receptors (Homo sapiens, UniProt P35367); test: hH1 receptor radioligand binding ([3H]Pyrilamine); settings: pKi reported on a scale of 1 through 5
T2 construct: expressed in transfected cells; host or cells: Chinese hamster ovary cells (membranes)
T2 sequence (P35367 whole entry): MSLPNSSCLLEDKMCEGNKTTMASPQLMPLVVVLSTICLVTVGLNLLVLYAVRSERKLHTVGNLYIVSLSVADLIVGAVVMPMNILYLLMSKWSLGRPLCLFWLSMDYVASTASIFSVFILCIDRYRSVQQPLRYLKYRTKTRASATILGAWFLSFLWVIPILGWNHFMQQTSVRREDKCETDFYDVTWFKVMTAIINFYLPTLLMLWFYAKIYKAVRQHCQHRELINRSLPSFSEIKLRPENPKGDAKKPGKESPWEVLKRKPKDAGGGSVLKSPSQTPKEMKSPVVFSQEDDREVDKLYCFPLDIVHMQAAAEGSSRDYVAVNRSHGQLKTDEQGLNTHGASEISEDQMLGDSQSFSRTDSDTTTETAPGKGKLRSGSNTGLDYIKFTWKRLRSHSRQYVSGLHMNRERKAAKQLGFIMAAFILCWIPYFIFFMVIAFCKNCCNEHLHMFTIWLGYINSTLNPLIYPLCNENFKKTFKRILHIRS
Description: as §1, §2

[1] = biological target: T3, human D2s dopamine receptors (Homo sapiens, UniProt P14416); test: hD2S receptor radioligand binding ([3H]spiperone); settings: pKi reported on a scale of 1 through 5
T3 construct: expressed in transfected cells; host or cells: Chinese hamster ovary cells (membranes)
T3 sequence (P14416 1-414 isoform P14416-2): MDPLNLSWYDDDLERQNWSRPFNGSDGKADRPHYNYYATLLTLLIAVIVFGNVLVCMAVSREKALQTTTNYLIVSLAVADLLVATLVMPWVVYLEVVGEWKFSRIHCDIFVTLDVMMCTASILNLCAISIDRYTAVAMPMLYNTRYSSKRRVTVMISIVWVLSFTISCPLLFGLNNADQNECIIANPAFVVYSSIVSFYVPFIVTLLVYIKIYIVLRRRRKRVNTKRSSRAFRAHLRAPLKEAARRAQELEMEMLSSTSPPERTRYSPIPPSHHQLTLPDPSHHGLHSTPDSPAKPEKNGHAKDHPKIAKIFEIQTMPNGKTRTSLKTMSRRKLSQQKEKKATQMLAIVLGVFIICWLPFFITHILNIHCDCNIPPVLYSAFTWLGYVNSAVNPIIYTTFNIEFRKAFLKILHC
Description: as §1, §2

human 5HT7 receptors = biological target: T4, human 5HT7 receptors (Homo sapiens, UniProt P34969); test: h5-HT7 receptor radioligand binding ([3H]5-CT)
T4 construct: expressed in transfected cells; host or cells: Chinese hamster ovary cells (membranes)
T4 sequence (P34969 whole entry): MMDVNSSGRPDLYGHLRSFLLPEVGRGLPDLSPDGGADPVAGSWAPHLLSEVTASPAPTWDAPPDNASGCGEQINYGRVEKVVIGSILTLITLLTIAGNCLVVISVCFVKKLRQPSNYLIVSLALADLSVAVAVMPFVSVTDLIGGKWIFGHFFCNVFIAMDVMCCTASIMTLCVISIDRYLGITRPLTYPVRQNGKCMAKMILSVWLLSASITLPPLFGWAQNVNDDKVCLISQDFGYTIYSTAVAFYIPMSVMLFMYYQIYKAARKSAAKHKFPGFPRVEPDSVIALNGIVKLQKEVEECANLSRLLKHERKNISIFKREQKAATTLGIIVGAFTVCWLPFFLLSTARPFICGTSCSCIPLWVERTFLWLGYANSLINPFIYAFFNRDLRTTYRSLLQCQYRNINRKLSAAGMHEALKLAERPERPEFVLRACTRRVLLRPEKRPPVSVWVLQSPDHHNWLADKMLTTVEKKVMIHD
Description: as §1, §2

5-HT2A receptor = biological target: T5, 5-HT2A receptor (Rattus norvegicus, UniProt P14842); test: cell-based
T5 construct: Eight strips of tissue (0.5 cm long) were cut. and were mounted in 10 ml organ baths; tissue Charles River Laboratories; host or cells: rat aorta strips, endothelium removed
T5 sequence (P14842 whole entry): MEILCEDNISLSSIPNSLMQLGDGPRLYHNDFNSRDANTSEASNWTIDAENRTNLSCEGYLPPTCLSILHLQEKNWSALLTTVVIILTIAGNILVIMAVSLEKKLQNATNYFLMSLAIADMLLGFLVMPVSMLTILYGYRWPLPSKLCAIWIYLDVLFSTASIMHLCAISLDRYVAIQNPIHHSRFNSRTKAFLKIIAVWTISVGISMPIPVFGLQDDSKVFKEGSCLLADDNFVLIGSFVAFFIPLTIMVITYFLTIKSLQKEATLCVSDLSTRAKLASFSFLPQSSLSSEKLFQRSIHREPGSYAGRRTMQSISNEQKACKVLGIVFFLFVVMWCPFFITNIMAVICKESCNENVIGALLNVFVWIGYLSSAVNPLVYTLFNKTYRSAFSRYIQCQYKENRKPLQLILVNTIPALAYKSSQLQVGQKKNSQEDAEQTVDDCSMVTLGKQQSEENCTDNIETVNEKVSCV
Description: The rat aorta (approximately 7 cm) was isolated and removed from the animal (male Sprague Dawley rat, Charles River Laboratories, Hollister, Calif.). The endothelium was removed mechanically. Eight strips of tissue (0.5 cm long) were cut. and were mounted in 10 ml organ baths kept at 37° C. with Krebs solution (composition in mM: NaCl (118.2), KCl (4.6), CaCl2 (2.5), MgSO4 (1.2), KH2PO4 (1.2), NaHCO3 (24.8) and dextrose (10.0)) that was constantly aerated with carbogen gas (95% O2/5% CO2) to obtain a pH of 7.4. The tissues were subjected to a resting tension of 2 g (3 times, 15 minutes apart, equilibrated in Krebs solution). The tissues were then washed 15 minutes later. Ten minutes later, the tissues were then exposed to 0.1 μM phenylephrine. At the maximal effect, 1 μM acetylcholine was added to confirm the absence of endothelium and then washed twice, 2 minutes apart.
Contractions were recorded as changes in tension from baseline and expressed as a percentage of the maximum response of the agonist (5-HT) concentration-effect curve. Agonist concentration-response curves were fitted using a nonlinear iterative fitting program (GraphPad Prism) using the relationship of Parker and Waud (Parker, R. B. and Waud, D. R. (1971). Pharmacological estimation of drug-receptor dissociation constants. Statistical evaluation. I. Agonists. J. Pharmacol. Exp. Ther., 177, 1-12). Agonist potency was expressed as EC50 (molar concentration of agonist producing 50% of the maximum response). Concentration-ratios (CRs) were determined from EC50 values in the presence and absence of antagonist and antagonist affinity estimates (pKB and pA2 values) were determined. All data are expressed as mean±s.e. mean.

human M3 receptors = biological target: T6, human M3 receptors (Homo sapiens, UniProt P20309); test: hM3 receptor radioligand binding ([3H]NMS)
T6 construct: expressed in transfected cells; host or cells: Chinese hamster ovary cells (membranes)
T6 sequence (P20309 whole entry): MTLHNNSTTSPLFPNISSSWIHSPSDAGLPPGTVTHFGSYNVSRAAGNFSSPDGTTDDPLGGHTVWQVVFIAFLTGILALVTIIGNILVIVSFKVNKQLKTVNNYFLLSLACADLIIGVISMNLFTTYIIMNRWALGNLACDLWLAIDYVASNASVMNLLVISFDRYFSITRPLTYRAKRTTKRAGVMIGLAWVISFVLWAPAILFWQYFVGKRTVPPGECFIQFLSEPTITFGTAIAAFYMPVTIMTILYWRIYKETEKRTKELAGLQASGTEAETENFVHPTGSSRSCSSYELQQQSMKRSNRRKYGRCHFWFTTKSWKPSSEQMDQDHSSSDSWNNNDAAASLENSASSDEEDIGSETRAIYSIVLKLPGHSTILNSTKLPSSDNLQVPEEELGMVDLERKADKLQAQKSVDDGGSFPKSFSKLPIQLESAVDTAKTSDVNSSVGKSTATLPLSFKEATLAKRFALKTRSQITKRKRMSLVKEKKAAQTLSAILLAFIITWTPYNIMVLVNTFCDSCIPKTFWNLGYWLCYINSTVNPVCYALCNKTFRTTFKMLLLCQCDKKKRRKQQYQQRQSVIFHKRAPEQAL
Description: as §1, §2

human 5HT2C receptors = biological target: T7, human 5HT2C receptors (Homo sapiens, UniProt P28335); test: h5-HT2C receptor radioligand binding ([3H]Mesulergine); settings: pKi reported on a scale of 1 through 5
T7 construct: expressed in transfected cells; host or cells: human embryo kidney cells (membranes)
T7 sequence (P28335 33-458): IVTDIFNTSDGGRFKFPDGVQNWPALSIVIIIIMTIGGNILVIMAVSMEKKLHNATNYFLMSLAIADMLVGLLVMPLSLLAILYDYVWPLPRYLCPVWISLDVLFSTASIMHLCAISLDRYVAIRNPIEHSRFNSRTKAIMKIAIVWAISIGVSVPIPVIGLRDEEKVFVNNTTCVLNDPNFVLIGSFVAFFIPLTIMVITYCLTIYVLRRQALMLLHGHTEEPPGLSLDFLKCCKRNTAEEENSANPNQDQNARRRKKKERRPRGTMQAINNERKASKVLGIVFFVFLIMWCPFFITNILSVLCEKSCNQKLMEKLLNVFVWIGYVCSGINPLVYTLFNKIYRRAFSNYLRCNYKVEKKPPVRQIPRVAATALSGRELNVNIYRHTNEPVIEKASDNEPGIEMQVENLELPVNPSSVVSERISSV
Description: The measurements were based on the binding of a single concentration of radiolabeled ligand in the presence of various concentrations of unlabeled ligand.
as §2

human M1 receptors = biological target: T8, human M1 receptors (Homo sapiens, UniProt P11229); test: hM1 receptor radioligand binding ([3H]NMS); settings: pKi reported on a scale of 1 through 5
T8 construct: expressed in transfected cells; host or cells: Chinese hamster ovary cells (membranes)
T8 sequence (P11229 1-460): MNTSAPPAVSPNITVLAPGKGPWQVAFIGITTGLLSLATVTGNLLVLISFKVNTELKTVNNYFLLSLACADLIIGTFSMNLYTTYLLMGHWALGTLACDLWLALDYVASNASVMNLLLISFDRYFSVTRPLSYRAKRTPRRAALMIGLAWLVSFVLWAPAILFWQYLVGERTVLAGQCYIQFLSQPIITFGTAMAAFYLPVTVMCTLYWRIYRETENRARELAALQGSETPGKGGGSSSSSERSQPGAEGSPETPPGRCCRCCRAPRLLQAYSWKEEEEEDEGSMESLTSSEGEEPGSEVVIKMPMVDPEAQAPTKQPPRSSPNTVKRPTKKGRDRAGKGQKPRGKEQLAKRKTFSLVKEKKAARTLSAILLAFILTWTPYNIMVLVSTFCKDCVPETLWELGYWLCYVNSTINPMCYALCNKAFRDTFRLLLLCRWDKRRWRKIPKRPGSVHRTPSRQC
Description: as §1, §2

[2] = biological target: T9, human D2L dopamine receptors (Homo sapiens, UniProt P14416); test: hD2L receptor radioligand binding ([3H]spiperone); settings: pKi reported on a scale of 1 through 5; read-out: D2L (pKi) (converted)
T9 construct: expressed in transfected cells; host or cells: insect Sf9 cells (membranes)
T9 sequence (P14416 whole entry): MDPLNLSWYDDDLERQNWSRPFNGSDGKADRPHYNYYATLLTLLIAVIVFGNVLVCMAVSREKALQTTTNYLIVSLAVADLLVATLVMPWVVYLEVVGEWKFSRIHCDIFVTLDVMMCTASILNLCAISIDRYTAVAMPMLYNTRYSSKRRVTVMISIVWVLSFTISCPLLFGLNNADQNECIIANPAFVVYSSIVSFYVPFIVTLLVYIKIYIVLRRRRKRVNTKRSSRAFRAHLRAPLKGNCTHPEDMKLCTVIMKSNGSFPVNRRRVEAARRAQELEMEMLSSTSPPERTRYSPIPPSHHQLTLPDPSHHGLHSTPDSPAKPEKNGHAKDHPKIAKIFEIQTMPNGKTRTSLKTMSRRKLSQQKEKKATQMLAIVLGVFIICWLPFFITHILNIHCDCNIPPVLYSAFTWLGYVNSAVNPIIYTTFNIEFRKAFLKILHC
Description: as §1, §2

[3] = pKi reported on a scale of 1 through 5, read-out: 5HT7 (pKi) (converted)
[4] = read-out: 5HT2A (pKb) (converted)
[5] = pKi reported on a scale of 1 through 5, read-out: M3 (pKi) (converted)

SMILES | Ki (human 5HT1A receptors) [nM] | Ki (human H1 receptors) [nM] | Ki [1] [nM] | Ki (human 5HT7 receptors; [3]) [nM] | Kb (5-HT2A receptor; [4]) [nM] | Ki (human M3 receptors; [5]) [nM] | Ki (human 5HT2C receptors) [nM] | Ki (human M1 receptors) [nM] | Ki [2] [nM] | Ki (human 5HT7 receptors) [nM] | Kb (5-HT2A receptor) [nM] | Ki (human M3 receptors) [nM]
CC(C)(C)COC(=O)C[C@H]1CN(C2=Nc3cc(Cl)ccc3Oc3ccccc32)CCN1 [EA, (S,E)-neopentyl 2-(4-(8-chlorodibenzo[b,f][1,4]oxazepin-11-yl)piperazin-2-yl)acetate] | 10 to 97.7 | 100 to 977 | 2510 to 9770 | > 10000 | 10 to 30.9 | > 10000 | 10 to 97.7 | 1260 to 2450 | – | – | – | –
CCOC(=O)CC1CN(C2=Nc3ccc(Cl)cc3Oc3ccccc32)CCN1 (centres unmarked) [H, (E)-ethyl 2-(4-(7-chlorodibenzo[b,f][1,4]oxazepin-11-yl)piperazin-2-yl)acetate] | – | 100 to 977 | 631 to 2450 | – | 31.6 to 97.7 | > 10000 | 10 to 97.7 | > 10000 | 631 to 2450 | – | – | –
O=C(O)CC1CN(C2=Nc3cc(Cl)ccc3Oc3ccccc32)CCN1 (centres unmarked) [Compound E, (E)-2-(4-(8-chlorodibenzo[b,f][1,4]oxazepin-11-yl)piperazin-2-yl)acetic acid] | 1000 to 9770 | 100 to 977 | > 10000 | – | 31.6 to 97.7 | > 10000 | 100 to 977 | > 10000 | > 10000 | – | – | –
CC(C)(O)CCOC(=O)C[C@H]1CN(C2=Nc3cc(Cl)ccc3Oc3ccccc32)CCN1 [EC, (S,E)-3-hydroxy-3-methylbutyl 2-(4-(8-chlorodibenzo[b,f][1,4]oxazepin-11-yl)piperazin-2-yl)acetate] | 10 to 97.7 | 10 to 97.7 | 631 to 2450 | 631 to 1550 | 10 to 30.9 | > 10000 | 10 to 97.7 | > 10000 | – | – | – | –
CCOC(=O)C[C@@H]1CN(C2=Nc3cc(Cl)ccc3Oc3ccccc32)CCN1 [O, (R,E)-ethyl 2-(4-(8-chlorodibenzo[b,f][1,4]oxazepin-11-yl)piperazin-2-yl)acetate] | 100 to 977 | 100 to 977 | 2510 to 9770 | – | 31.6 to 97.7 | > 10000 | 10 to 97.7 | – | 2510 to 9770 | – | – | –
COC(C)(C)CCOC(=O)C[C@H]1CN(C2=Nc3cc(Cl)ccc3Oc3ccccc32)CCN1 [EB, (S,E)-3-methoxy-3-methylbutyl 2-(4-(8-chlorodibenzo[b,f][1,4]oxazepin-11-yl)piperazin-2-yl)acetate] | ≤ 9.77 | 10 to 97.7 | 631 to 2450 | 1580 to 3890 | 10 to 30.9 | > 10000 | 10 to 97.7 | 5010 to 9770 | – | – | – | –
O=C(O)C[C@@H]1CN(C2=Nc3cc(Cl)ccc3Oc3ccccc32)CCN1 [AB, (R,E)-2-(4-(8-chlorodibenzo[b,f][1,4]oxazepin-11-yl)piperazin-2-yl)acetic acid] | > 10000 | 100 to 977 | > 10000 | – | 31.6 to 97.7 | > 10000 | 100 to 977 | – | > 10000 | – | – | –
C[C@H](O)C[C@H](C)OC(=O)C[C@H]1CN(C2=Nc3cc(Cl)ccc3Oc3ccccc32)CCN1 [EO, (2S,4S)-4-hydroxypentan-2-yl 2-((S)-4-((E)-8-chlorodibenzo[b,f][1,4]oxazepin-11-yl)piperazin-2-yl)acetate] | ≤ 9.77 | 10 to 97.7 | 631 to 2450 | 631 to 1550 | 10 to 30.9 | > 10000 | 10 to 97.7 | > 10000 | – | – | – | –
CCOC(=O)CC1CN(C2=Nc3cc(Cl)ccc3Oc3ccccc32)CCN1C (centres unmarked) [DN, (E)-ethyl 2-(4-(8-chlorodibenzo[b,f][1,4]oxazepin-11-yl)-1-methylpiperazin-2-yl)acetate] | – | 100 to 977 | 2510 to 9770 | – | 31.6 to 97.7 | > 10000 | 100 to 977 | 2510 to 4900 | 2510 to 9770 | – | – | –
COC(=O)C[C@@H]1CN(C2=Nc3cc(Cl)ccc3Oc3ccccc32)CCN1 [Compound P, (R,E)-methyl 2-(4-(8-chlorodibenzo[b,f][1,4]oxazepin-11-yl)piperazin-2-yl)acetate] | 1000 to 9770 | 100 to 977 | 2510 to 9770 | – | 31.6 to 97.7 | > 10000 | 100 to 977 | – | 2510 to 9770 | – | – | –
CN1CCN(C2=Nc3cc(Cl)ccc3Oc3ccccc32)C[C@@H]1CC(=O)O[C@@H]1CN2CCC1CC2 [DS, (S)-quinuclidin-3-yl 2-((S)-4-((E)-8-chlorodibenzo[b,f][1,4]oxazepin-11-yl)-1-methylpiperazin-2-yl)acetate] | 1000 to 9770 | – | > 10000 | – | – | – | 1000 to 9770 | – | – | > 10000 | > 100 | > 10000
COC(=O)CC1CN(C2=Nc3cc(Cl)ccc3Oc3ccccc32)CCN1 (centres unmarked) [I, (E)-methyl 2-(4-(8-chlorodibenzo[b,f][1,4]oxazepin-11-yl)piperazin-2-yl)acetate] | 100 to 977 | 100 to 977 | 2510 to 9770 | – | 10 to 30.9 | > 10000 | 10 to 97.7 | 5010 to 9770 | 2510 to 9770 | – | – | –
CN1CCN(C2=Nc3cc(Cl)ccc3Oc3ccccc32)C[C@@H]1CC(=O)OC1CCOCC1 [DZ, (S,E)-tetrahydro-2H-pyran-4-yl 2-(4-(8-chlorodibenzo[b,f][1,4]oxazepin-11-yl)-1-methylpiperazin-2-yl)acetate] | 100 to 977 | – | 2510 to 9770 | > 10000 | 31.6 to 97.7 | > 10000 | 100 to 977 | – | – | – | – | –
